Experimental data as given in ChEMBL document CHEMBL3044556, “Managing weeds with drip-applied herbicides in tomato” (2008).

Legend:
Format in all cases: functional
Eleusine indica [1] = assay: Pre-emergence herbicidal activity against Eleusine indica in tomato field assessed as number of weeds at 2.28 kg/ha applied through drip lines/backpack-spray on week 3 to 4 before transplanting measured 12 weeks after treatment (reference value: 9 plants/m2)
Digitaria [2] = assay: Pre-emergence herbicidal activity against Digitaria spp. in tomato field assessed as number of weeds at 2.28 kg/ha applied through drip lines/backpack-spray on week 3 to 4 before transplanting measured 12 weeks after treatment (reference value: 9 plants/m2)
Trianthema [3] = assay: Pre-emergence herbicidal activity against Trianthema spp. in tomato field assessed as total number of fruits at 2.28 kg/ha applied through drip lines/backpack-spray on week 3 to 4 before transplanting (reference value: 49.5 x 10 '3 ha); settings: pooled result: one value given for 8 cell lines, strains, targets or settings
Eleusine indica [4] = assay: Pre-emergence herbicidal activity against Eleusine indica in tomato field assessed as number of extra-large fruits at 2.28 kg/ha applied through drip lines/backpack-spray on week 3 to 4 before transplanting (reference value: 21.3 x 10 '3 ha); settings: pooled result: one value given for 8 cell lines, strains, targets or settings
Echinochloa colona [5] = assay: Pre-emergence herbicidal activity against Echinochloa colona in tomato field assessed as number of weeds at 2.28 kg/ha applied through drip lines/backpack-spray on week 3 to 4 before transplanting measured 12 weeks after treatment (reference value: 9 plants/m2)
Amaranthus dubius [6] = assay: Pre-emergence herbicidal activity against Amaranthus dubius in tomato field assessed as number of weeds at 2.28 kg/ha applied through drip lines/backpack-spray on week 3 to 4 before transplanting measured 12 weeks after treatment (reference value: 9 plants/m2)
Boerhavia erecta [7] = assay: Pre-emergence herbicidal activity against Boerhavia erecta in tomato field assessed as number of weeds at 2.28 kg/ha applied through drip lines/backpack-spray on week 3 to 4 before transplanting measured 12 weeks after treatment (reference value: 9 plants/m2)
Corynandra viscosa [8] = assay: Pre-emergence herbicidal activity against Cleome viscosa in tomato field assessed as number of weeds at 2.28 kg/ha applied through drip lines/backpack-spray on week 3 to 4 before transplanting measured 12 weeks after treatment (reference value: 9 plants/m2)
Portulaca oleracea [9] = assay: Pre-emergence herbicidal activity against Portulaca oleracea in tomato field assessed as number of weeds at 2.28 kg/ha applied through drip lines/backpack-spray on week 3 to 4 before transplanting measured 12 weeks after treatment (reference value: 9 plants/m2)
Trianthema [10] = assay: Pre-emergence herbicidal activity against Trianthema spp. in tomato field assessed as number of weeds at 2.28 kg/ha applied through drip lines/backpack-spray on week 3 to 4 before transplanting measured 12 weeks after treatment (reference value: 9 plants/m2)
Cyperus [11] = assay: Pre-emergence herbicidal activity against Cyperus in tomato field assessed as number of weeds at 2.28 kg/ha applied through drip lines/backpack-spray on week 3 to 4 before transplanting measured 12 weeks after treatment (reference value: 5 plants/m2)
Poaceae [12] = assay: Pre-emergence herbicidal activity against Poaceae (grass family) in tomato field assessed as number of weeds at 2.28 kg/ha applied through drip lines/backpack-spray on week 3 to 4 before transplanting measured 12 weeks after treatment (reference value: 8 plants/m2)
Eleusine indica [13] = assay: Pre-emergence herbicidal activity against Eleusine indica in tomato field assessed as number of weeds at 2.28 kg/ha applied through drip lines/backpack-spray on week 3 to 4 before transplanting measured 7 weeks after treatment (reference value: 9 plants/m2)
Digitaria [14] = assay: Pre-emergence herbicidal activity against Digitaria spp. in tomato field assessed as number of weeds at 2.28 kg/ha applied through drip lines/backpack-spray on week 3 to 4 before transplanting measured 7 weeks after treatment (reference value: 9 plants/m2)
Echinochloa colona [15] = assay: Pre-emergence herbicidal activity against Echinochloa colona in tomato field assessed as number of weeds at 2.28 kg/ha applied through drip lines/backpack-spray on week 3 to 4 before transplanting measured 7 weeks after treatment (reference value: 9 plants/m2)
Amaranthus dubius [16] = assay: Pre-emergence herbicidal activity against Amaranthus dubius in tomato field assessed as number of weeds at 2.28 kg/ha applied through drip lines/backpack-spray on week 3 to 4 before transplanting measured 7 weeks after treatment (reference value: 9 plants/m2)
Boerhavia erecta [17] = assay: Pre-emergence herbicidal activity against Boerhavia erecta in tomato field assessed as number of weeds at 2.28 kg/ha applied through drip lines/backpack-spray on week 3 to 4 before transplanting measured 7 weeks after treatment (reference value: 9 plants/m2)
Corynandra viscosa [18] = assay: Pre-emergence herbicidal activity against Cleome viscosa in tomato field assessed as number of weeds at 2.28 kg/ha applied through drip lines/backpack-spray on week 3 to 4 before transplanting measured 7 weeks after treatment (reference value: 9 plants/m2)
Portulaca oleracea [19] = assay: Pre-emergence herbicidal activity against Portulaca oleracea in tomato field assessed as number of weeds at 2.28 kg/ha applied through drip lines/backpack-spray on week 3 to 4 before transplanting measured 7 weeks after treatment (reference value: 9 plants/m2)
Trianthema [20] = assay: Pre-emergence herbicidal activity against Trianthema spp. in tomato field assessed as number of weeds at 2.28 kg/ha applied through drip lines/backpack-spray on week 3 to 4 before transplanting measured 7 weeks after treatment (reference value: 9 plants/m2)
Cyperus [21] = assay: Pre-emergence herbicidal activity against Cyperus in tomato field assessed as number of weeds at 2.28 kg/ha applied through drip lines/backpack-spray on week 3 to 4 before transplanting measured 7 weeks after treatment (reference value: 3 plants/m2)
Poaceae [22] = assay: Pre-emergence herbicidal activity against Poaceae (grass family) in tomato field assessed as number of weeds at 2.28 kg/ha applied through drip lines/backpack-spray on week 3 to 4 before transplanting measured 7 weeks after treatment (reference value: 6 plants/m2)
Amaranthus dubius [23] = assay: Pre-emergence herbicidal activity against Amaranthus dubius in tomato field assessed as extra-large fruit weight at 2.28 kg/ha applied through drip lines/backpack-spray on week 3 to 4 before transplanting (reference value: 7.3 t/ha); settings: pooled result: one value given for 8 cell lines, strains, targets or settings
Eleusine indica [24] = assay: Pre-emergence herbicidal activity against Eleusine indica in tomato field assessed as total fruit weight at 2.28 kg/ha applied through drip lines/backpack-spray on week 3 to 4 before transplanting (reference value: 13.7 t/ha); settings: pooled result: one value given for 8 cell lines, strains, targets or settings

## CCN(CC)C(=O)C(C)Oc1cccc2ccccc12 (centres undefined) [NAPROPAMIDE]
Eleusine indica [1]
  Activity: 7 /m2
Digitaria [2]
  Activity: 7 /m2
Trianthema [3]
  Activity: 58.3 10^3 fruits/ha
Eleusine indica [4]
  fruit count: 26.3 10^3 fruits/ha
Echinochloa colona [5]
  Activity: 7 /m2
Amaranthus dubius [6]
  Activity: 7 /m2
Boerhavia erecta [7]
  Activity: 7 /m2
Corynandra viscosa [8]
  Activity: 7 /m2
Portulaca oleracea [9]
  Activity: 7 /m2
Trianthema [10]
  Activity: 7 /m2
Cyperus [11]
  Activity: 9 /m2
Poaceae [12]
  Activity: 6 /m2
Eleusine indica [13]
  Activity: 4 /m2
Digitaria [14]
  Activity: 4 /m2
Echinochloa colona [15]
  Activity: 4 /m2
Amaranthus dubius [16]
  Activity: 4 /m2
Boerhavia erecta [17]
  Activity: 4 /m2
Corynandra viscosa [18]
  Activity: 4 /m2
Portulaca oleracea [19]
  Activity: 4 /m2
Trianthema [20]
  Activity: 4 /m2
Cyperus [21]
  Activity: 6 /m2
Poaceae [22]
  Activity: 1 /m2
Amaranthus dubius [23]
  Activity: 9.1 tons/ha
Eleusine indica [24]
  Activity: 16.4 tons/ha
